Assays:
[1] = test system: P. falciparum 3D7 Clone / 3D7 Parental; test: SYBR Green dose response, cloned 3D7 control/parental lines of the resistance selection; assay type: cell-based, Plasmodium falciparum
Source text: To assess whether we could use the DMSO melting curves previously established for […] by Dziekan et al. ([49]), we calculated the difference in melting temperatures (ΔTm) between our DMSO dataset and Dziekan’s for 364 proteins for which Tm values were confidently calculated by mineCETSA (table S6).
Fig. 4. […] (C) Schematic representation of the CRISPR-Cas9–based replacement strategy used to introduce a deletion of the targeted repeat regions in the PfSec13 gene. The insertion was achieved through overlap extension polymerase chain reaction (PCR) of fragments directly upstream and downstream of the target segment and subsequently formed by primer overlap extension PCR to replicate the desired deletion. […] (D) Predicted structure of the SEC13 protein highlighting the seven amino acid tandem repeat regions targeted for deletion (red). […] Data were analyzed using a Sigmoidal, 4PL (X represents concentration, n = 3, nonlinear regression, CI: 95%).
P. falciparum in vitro SYBR green fluorescence-based assays The anti-malarial activity of individual analogues were evaluated in-vitro against P. falciparum 3D7 (MRA-102, drug […]
green-I based fluorescence assay. Parasite growth rate and stages of development were determined via microscopy through Giemsa-stained smears of the cultures. Serial dilutions of the compounds ranging from 10uM-0.5nM were prepared in 96-well plates (Corning, Costar 3904) followed by […]
hematocrit added to each well. Eight wells were treated with vehicle control (DMSO) as control.
Plates were incubated in a modular incubation chamber (Billups-Rothenberg, Del Mar, CA)

[2] = test system: P. cynomolgi M/B strain parasites; test: P. cynomolgi M/B strain drug assay (Hoechst flow cytometry); assay type: cell-based; settings: Plasmodium cynomolgi, harvested 60 hours after initial dosing
Source text: Detailed information on materials and methods is available in the supplementary materials. […] P. knowlesi assays were quantitatively measured by flow cytometry using SYBR Green I and Mitrotracker Deep Red, as previously described ([84], [85]), on a Beckman Coulter CytoFLEX. Nonhuman primate infections were required to generate P. cynomolgi M/B strain parasites for in vitro testing ([82], [86]). […]
reduction in weight, aggressive or unexpected animal behavior, animals are immediately euthanized with CO2. If no toxic effects are observed, mice are euthanized with CO2 at the end of […]
After infection, parasitemia was monitored daily by thick and thin blood films as previously described in Joyner et al. 2019 (86). […]
dosing. […] The experiment was repeated twice, and each concentration was assessed in […]
Data analysis The percentage of parasitized erythrocytes was determined by enumerating the number of Hoechst positive events out of the total erythrocytes after excluding non-single cells by forward and side scatter. The percent survival was calculated by averaging the parasitemia in the triplicates for each condition and then dividing by the parasitemia observed in the wells that did not receive drug treatment. The IC50 was then calculated using GraphPad Prism 9 (GraphPad […]

[C-]#[N+][C@]1(C)CC[C@H]2[C@@H]([C@@H](C(C)C)CC[C@]2(C)[N+]#[C-])[C@H]1O [MED6-189]
IC50 ([1]; 3D7 Parental, drug-sensitive parental line): 15 nM
IC50 ([1]; Plasmodium falciparum, 3D7, 3D7 Clone (drug sensitive)): 13 nM
IC50 ([1]; Plasmodium falciparum, 3D7, 3D7 Parental, drug-sensitive parental line): ~14 nM
IC50 [2]: 136 ± 56 nM

From article PMC11793105, “A kalihinol analog disrupts apicoplast function and vesicular trafficking in P. falciparum malaria” (Science (New York, N.Y.), 2024)
